{"source": "the supplement of paper PMC11061612", "experiment_in_all_cases": "combination Emax (second highest fraction inhibited in the dose matrix, 72 h); higher = more inhibition; extreme values may be limits of the assay", "key": {"[1]": {"system": "647-V (Bladder Carcinoma)", "procedure,_shortened": "(§1)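 Cell lines grown in DMEM/F12 or RPMI with 10% FBS were plated in 1536-well plates and held 24 hours at 37°C, 5% CO2 before 72 hours of exposure to two-drug dose matrices, with DMSO typically at 0.2%. CellTiter-Glo 2.0 luminescence gave viability, which was converted to inhibition. Vehicle wells were set to 0 and blank wells to 1. Combination Emax is the second-highest inhibition in the matrix, and Bliss excess is the observed combination effect minus the expected EA + EB − EA·EB, where EA and EB are the single-agent effects.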"}, "[2]": {"system": "CAL-39 (Other Solid Carcinomas)", "procedure,_shortened": "as §1"}, "CS1 (Chondrosarcoma)": {"system": "CS1 (Chondrosarcoma)", "procedure,_shortened": "as §1"}, "D-392MG (Glioblastoma)": {"system": "D-392MG (Glioblastoma)", "procedure,_shortened": "as §1"}, "[3]": {"system": "DOK (Oral Cavity Carcinoma)", "procedure,_shortened": "as §1"}, "[4]": {"system": "EKVX (Non-Small Cell Lung Carcinoma)", "procedure,_shortened": "as §1"}, "[5]": {"system": "ETK-1 (Biliary Tract Carcinoma)", "procedure,_shortened": "as §1"}, "EW-22 (Ewing's Sarcoma)": {"system": "EW-22 (Ewing's Sarcoma)", "procedure,_shortened": "as §1"}, "H4 (Low Grade Glioma)": {"system": "H4 (Low Grade Glioma)", "procedure,_shortened": "as §1"}, "MCF7 (Breast Carcinoma)": {"system": "MCF7 (Breast Carcinoma)", "procedure,_shortened": "as §1"}, "[6]": {"system": "SK-UT-1 (Other Solid Carcinomas)", "procedure,_shortened": "as §1"}, "[7]": {"system": "SKN-3 (Head and Neck Carcinoma)", "procedure,_shortened": "as §1"}, "[8]": {"system": "SNG-M (Endometrial Carcinoma)", "procedure,_shortened": "as §1"}, "[9]": {"system": "SNU-61 (Colorectal Carcinoma)", "procedure,_shortened": "as §1"}, "[10]": {"system": "SW48 (Colorectal Carcinoma)", "procedure,_shortened": "as §1"}, "[11]": {"system": "SW948 (Colorectal Carcinoma)", "procedure,_shortened": "as §1"}, "Saos-2 (Osteosarcoma)": {"system": "Saos-2 (Osteosarcoma)", "procedure,_shortened": "as §1"}, "[12]": {"system": "TYK-nu (Ovarian Carcinoma)", "procedure,_shortened": "as §1"}, "[13]": {"system": "WSU-DLCL2 (B-Cell Non-Hodgkin's Lymphoma)", "procedure,_shortened": "as §1"}, "[14]": {"system": "YT (Other Blood Carcinomas)", "procedure,_shortened": "as §1"}}}
{"smiles": "CN(CCO)CC[C@H](CSc1ccccc1)Nc1ccc(S(=O)(=O)NC(=O)c2ccc(N3CCC([C@@H](O)c4ccccc4-c4ccc(Cl)cc4)CC3)cc2)cc1S(=O)(=O)C(F)(F)F", "note": "[AZD4320] + CN(C)CCCOc1ccc(-c2ccc3ncc4c(c3c2)n(C2CCOCC2)c(=O)n4C)cn1 [AZD0156] (first compound max 1 µM, 7x7, partner max 1 µM)", "values": [{"measurement": "combination Emax", "setting": "[1]", "result": 0.172}, {"measurement": "combination Emax", "setting": "[2]", "result": 0.181}, {"measurement": "combination Emax", "setting": "CS1 (Chondrosarcoma)", "result": 0.427}, {"measurement": "combination Emax", "setting": "D-392MG (Glioblastoma)", "result": 0.218}, {"measurement": "combination Emax", "setting": "[3]", "result": 0.136}, {"measurement": "combination Emax", "setting": "[4]", "result": 0.155}, {"measurement": "combination Emax", "setting": "[5]", "result": 0.112}, {"measurement": "combination Emax", "setting": "EW-22 (Ewing's Sarcoma)", "result": 0.897}, {"measurement": "combination Emax", "setting": "H4 (Low Grade Glioma)", "result": 0.247}, {"measurement": "combination Emax", "setting": "MCF7 (Breast Carcinoma)", "result": 0.234}, {"measurement": "combination Emax", "setting": "[6]", "result": 0.0694}, {"measurement": "combination Emax", "setting": "[7]", "result": 0.102}, {"measurement": "combination Emax", "setting": "[8]", "result": 0.328}, {"measurement": "combination Emax", "setting": "[9]", "result": 0.11}, {"measurement": "combination Emax", "setting": "[10]", "result": 0.517}, {"measurement": "combination Emax", "setting": "[11]", "result": 0.248}, {"measurement": "combination Emax", "setting": "Saos-2 (Osteosarcoma)", "result": 0.193}, {"measurement": "combination Emax", "setting": "[12]", "result": 0.165}, {"measurement": "combination Emax", "setting": "[13]", "result": 0.581}, {"measurement": "combination Emax", "setting": "[14]", "result": 0.623}]}
{"smiles": "CC1(C)CCC(CN2CCN(c3ccc(C(=O)NS(=O)(=O)c4ccc(NCC5CCOCC5)c([N+](=O)[O-])c4)c(Oc4cnc5[nH]ccc5c4)c3)CC2)=C(c2ccc(Cl)cc2)C1", "note": "[Venetoclax] + COc1cc(Nc2ncc3c(n2)-c2ccc(Cl)cc2C(c2c(F)cccc2OC)=NC3)ccc1C(=O)O [Alisertib] (first compound max 1 µM, 7x7, partner max 10 µM)", "values": [{"measurement": "combination Emax", "setting": "[1]", "result": 0.317}, {"measurement": "combination Emax", "setting": "[2]", "result": 0.704}, {"measurement": "combination Emax", "setting": "CS1 (Chondrosarcoma)", "result": 0.598}, {"measurement": "combination Emax", "setting": "D-392MG (Glioblastoma)", "result": 0.416}, {"measurement": "combination Emax", "setting": "[3]", "result": 0.646}, {"measurement": "combination Emax", "setting": "[4]", "result": 0.646}, {"measurement": "combination Emax", "setting": "[5]", "result": 0.453}, {"measurement": "combination Emax", "setting": "EW-22 (Ewing's Sarcoma)", "result": 0.919}, {"measurement": "combination Emax", "setting": "H4 (Low Grade Glioma)", "result": 0.814}, {"measurement": "combination Emax", "setting": "MCF7 (Breast Carcinoma)", "result": 0.411}, {"measurement": "combination Emax", "setting": "[6]", "result": 0.458}, {"measurement": "combination Emax", "setting": "[7]", "result": 0.374}, {"measurement": "combination Emax", "setting": "[8]", "result": 0.752}, {"measurement": "combination Emax", "setting": "[9]", "result": 0.263}, {"measurement": "combination Emax", "setting": "[10]", "result": 0.887}, {"measurement": "combination Emax", "setting": "[11]", "result": 0.926}, {"measurement": "combination Emax", "setting": "Saos-2 (Osteosarcoma)", "result": 0.682}, {"measurement": "combination Emax", "setting": "[12]", "result": 0.521}, {"measurement": "combination Emax", "setting": "[13]", "result": 0.995}, {"measurement": "combination Emax", "setting": "[14]", "result": 0.555}]}
{"smiles": "CN(CCO)CC[C@H](CSc1ccccc1)Nc1ccc(S(=O)(=O)NC(=O)c2ccc(N3CCC([C@@H](O)c4ccccc4-c4ccc(Cl)cc4)CC3)cc2)cc1S(=O)(=O)C(F)(F)F", "note": "[AZD4320] + C[C@@H](Nc1cc(F)cc(F)c1)c1cc(C(=O)N(C)C)cc2c(=O)cc(N3CCOCC3)oc12 [AZD8186] (first compound max 1 µM, 7x7, partner max 3 µM)", "values": [{"measurement": "combination Emax", "setting": "[1]", "result": 0.989}, {"measurement": "combination Emax", "setting": "[2]", "result": 0.41}, {"measurement": "combination Emax", "setting": "CS1 (Chondrosarcoma)", "result": 0.839}, {"measurement": "combination Emax", "setting": "D-392MG (Glioblastoma)", "result": 0.649}, {"measurement": "combination Emax", "setting": "[3]", "result": 0.301}, {"measurement": "combination Emax", "setting": "[4]", "result": 0.308}, {"measurement": "combination Emax", "setting": "[5]", "result": 0.324}, {"measurement": "combination Emax", "setting": "EW-22 (Ewing's Sarcoma)", "result": 1}, {"measurement": "combination Emax", "setting": "H4 (Low Grade Glioma)", "result": 0.583}, {"measurement": "combination Emax", "setting": "MCF7 (Breast Carcinoma)", "result": 0.544}, {"measurement": "combination Emax", "setting": "[6]", "result": 0.273}, {"measurement": "combination Emax", "setting": "[7]", "result": 0.277}, {"measurement": "combination Emax", "setting": "[8]", "result": 0.674}, {"measurement": "combination Emax", "setting": "[9]", "result": 0.162}, {"measurement": "combination Emax", "setting": "[10]", "result": 0.914}, {"measurement": "combination Emax", "setting": "[11]", "result": 0.485}, {"measurement": "combination Emax", "setting": "Saos-2 (Osteosarcoma)", "result": 0.478}, {"measurement": "combination Emax", "setting": "[12]", "result": 0.645}, {"measurement": "combination Emax", "setting": "[13]", "result": 0.978}, {"measurement": "combination Emax", "setting": "[14]", "result": 0.676}]}
